ChEMBL document CHEMBL4265889, “Design and synthesis of tetrahydropyridopyrimidine based Toll-Like Receptor (TLR) 7/8 dual agonists” (Bioorg Med Chem Lett, 2018)

Columns and labels:
[1] = target: T1, Toll-like receptor 7 (Homo sapiens) (UniProt Q9NYK1); experiment: Agonist activity at human TLR7 expressed in HEK293 cells after 6 hrs by NFkappaB-luciferase reporter gene assay; assay type: cell-based
T1 sequence (whole entry): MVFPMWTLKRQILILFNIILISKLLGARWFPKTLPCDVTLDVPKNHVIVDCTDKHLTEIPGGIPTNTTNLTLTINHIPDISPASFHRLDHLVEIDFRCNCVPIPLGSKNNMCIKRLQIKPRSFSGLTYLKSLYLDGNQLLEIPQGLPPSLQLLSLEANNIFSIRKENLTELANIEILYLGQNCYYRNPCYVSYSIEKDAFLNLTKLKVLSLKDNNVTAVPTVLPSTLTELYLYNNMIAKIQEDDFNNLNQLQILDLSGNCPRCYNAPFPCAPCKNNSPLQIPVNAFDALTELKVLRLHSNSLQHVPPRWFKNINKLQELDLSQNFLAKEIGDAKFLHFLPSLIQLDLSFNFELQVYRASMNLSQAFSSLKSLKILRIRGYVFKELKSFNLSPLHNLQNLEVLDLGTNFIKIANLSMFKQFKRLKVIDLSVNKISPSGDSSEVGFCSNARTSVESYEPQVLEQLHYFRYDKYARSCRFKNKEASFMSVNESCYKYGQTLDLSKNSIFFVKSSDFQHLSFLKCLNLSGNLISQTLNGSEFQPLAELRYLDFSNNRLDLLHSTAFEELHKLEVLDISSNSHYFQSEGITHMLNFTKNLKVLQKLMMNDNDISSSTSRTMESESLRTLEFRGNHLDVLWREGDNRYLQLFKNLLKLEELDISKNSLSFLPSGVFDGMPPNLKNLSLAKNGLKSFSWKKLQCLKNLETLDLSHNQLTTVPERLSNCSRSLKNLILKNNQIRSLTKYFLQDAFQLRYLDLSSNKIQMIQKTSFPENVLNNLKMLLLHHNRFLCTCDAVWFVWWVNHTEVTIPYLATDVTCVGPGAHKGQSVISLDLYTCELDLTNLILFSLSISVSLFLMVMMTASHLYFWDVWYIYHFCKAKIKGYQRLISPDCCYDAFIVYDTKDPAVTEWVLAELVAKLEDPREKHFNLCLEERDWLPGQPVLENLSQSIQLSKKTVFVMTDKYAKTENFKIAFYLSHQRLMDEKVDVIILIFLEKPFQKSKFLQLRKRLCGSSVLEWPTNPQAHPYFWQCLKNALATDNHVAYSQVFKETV

[2] = target: T1, Toll-like receptor 7 (Homo sapiens); experiment: Agonist activity at TLR7 in human PBMC assessed as suppression of HCV replicon replication in human HuH7 luc/neo cells harboring RNA encoding bicistronic expression construct comprising wild type HCV type 1b NS3-NS5B regions exposed to conditioned media from compound treated PBMCs after 24 hrs by luciferase reporter gene assay; assay type: cell-based
[3] = target: T2, Toll-like receptor 8 (Homo sapiens) (UniProt Q9NR97); experiment: Agonist activity at human TLR8 expressed in HEK293 cells after 6 hrs by NFkappaB-luciferase reporter gene assay; assay type: cell-based
T2 sequence (whole entry): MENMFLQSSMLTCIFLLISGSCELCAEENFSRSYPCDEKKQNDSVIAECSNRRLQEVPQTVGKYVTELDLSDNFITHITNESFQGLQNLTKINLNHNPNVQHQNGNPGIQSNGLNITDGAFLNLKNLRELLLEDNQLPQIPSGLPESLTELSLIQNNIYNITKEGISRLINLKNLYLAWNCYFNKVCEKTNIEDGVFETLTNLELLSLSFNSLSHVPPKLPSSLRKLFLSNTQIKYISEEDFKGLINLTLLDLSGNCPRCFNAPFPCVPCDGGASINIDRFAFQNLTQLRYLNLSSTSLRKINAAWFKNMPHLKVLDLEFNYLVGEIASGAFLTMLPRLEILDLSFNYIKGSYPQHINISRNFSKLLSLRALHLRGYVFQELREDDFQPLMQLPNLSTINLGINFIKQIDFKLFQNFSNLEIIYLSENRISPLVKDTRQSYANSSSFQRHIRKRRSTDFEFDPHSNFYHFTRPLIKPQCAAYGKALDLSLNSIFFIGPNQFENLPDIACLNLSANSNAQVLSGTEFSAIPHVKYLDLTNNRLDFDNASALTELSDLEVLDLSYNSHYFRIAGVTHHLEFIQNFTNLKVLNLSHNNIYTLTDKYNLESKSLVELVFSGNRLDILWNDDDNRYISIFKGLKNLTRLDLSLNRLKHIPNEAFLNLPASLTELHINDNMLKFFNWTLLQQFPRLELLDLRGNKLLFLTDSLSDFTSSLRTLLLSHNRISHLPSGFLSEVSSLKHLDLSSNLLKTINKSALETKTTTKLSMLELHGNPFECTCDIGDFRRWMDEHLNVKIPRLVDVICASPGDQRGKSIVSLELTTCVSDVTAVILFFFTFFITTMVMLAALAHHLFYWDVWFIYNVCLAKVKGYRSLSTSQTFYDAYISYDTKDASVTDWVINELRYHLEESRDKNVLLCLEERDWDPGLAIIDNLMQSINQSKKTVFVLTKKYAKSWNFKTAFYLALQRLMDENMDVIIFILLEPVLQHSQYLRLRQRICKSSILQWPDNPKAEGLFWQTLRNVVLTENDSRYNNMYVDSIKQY

[4] = Cytotoxicity against HEK293 cells transfected with the CMV-TLR7 construct assessed as reduction in cell viability after 6 hrs by ATPlite assay; assay type: cell-based; conditions: human
[5] = Drug metabolism in mouse liver microsomes at 1 uM after 15 mins; assay type: ADME, microsome; conditions: read-out: Drug metabolism

SMILES	MEC [1] [µM]	MEC [2] [µM]	MEC [3] [µM]	CC50 at 6 h [4] [µM]	metabolised at 0.25 h, 1 µM [5] [%]
CCCCNc1nc(N)nc2c1CN(Cc1ccccn1)CC2	3.3	0.14	0.07	> 24	–
CCCCNc1nc(N)nc2c1CN(C)CC2	9.6	–	0.03	> 24	–
CCOCc1nc2c(N)nc3ccccc3c2n1CC(C)(C)O	0.1	–	0.3	–	–
CCCCNc1nc(N)nc2c1CN(S(C)(=O)=O)CC2	> 25	–	9.9	> 24	–
CCCCNc1nc(N)nc2c1CN(C(=O)c1cnc(C)cn1)CC2	11	1.07	6.8	> 24	–
CCCCNc1nc(N)nc2c1CCN(C(C)=O)C2	5.8	–	0.4	> 24	–
CCCCNc1nc(N)nc2c1CN(C(=O)c1csnn1)CC2	0.9	0.15	0.1	> 24	–
CCCCNc1nc(N)nc2c1CN(Cc1cccnc1)CC2	3	0.15	0.13	> 24	–
CCCCNc1nc(N)nc2c1CCN(Cc1ccccc1)C2	11	–	0.4	> 24	–
CCCCNc1nc(N)nc2c1CN(Cc1ccncc1)CC2	5.2	0.5	0.29	> 24	–
CCCCNc1nc(N)nc2c1CN(C(=O)c1cnc(N)s1)CC2	2.1	0.38	4.4	> 24	–
CCCCNc1nc(N)nc2c1CN(C(=O)c1ccncc1)CC2	> 25	3.56	> 25	> 24	–
CCCCNc1nc(N)nc2c1CN(C(C)=O)CC2	4.9	–	0.5	> 24	–
CCCCNc1nc(N)nc2c1CCN(CCc1ccccc1)C2	6.5	–	0.2	> 24	–
CCCCNc1nc(N)nc2c1CN(C(=O)c1csc(N)n1)CC2	8	1.05	6.9	> 24	–
CCCCNc1nc(N)nc2c1CN(Cc1ccc(-c3ccccc3)cc1)CC2	14	4.49	0.5	> 24	–
CCCCNc1nc(N)nc2c1CN(Cc1cccc3ccccc13)CC2	1.3	0.43	0.43	> 24	–
CCCCNc1nc(N)nc2c1CN(C(=O)c1cccs1)CC2	0.2	0.07	0.4	> 24	99
CCCCNc1nc(N)nc2c1CN(C(=O)c1ccccc1)CC2	1.5	–	1.4	> 24	–
CCCCNc1nc(N)nc2c1CN(CCc1ccccc1)CC2	1.8	–	0.2	> 24	–
CCCCNc1nc(N)nc2c1CN(C(=O)c1ccccn1)CC2	9.5	2.21	2.9	> 24	–
CCCCNc1nc(N)nc2c1CN(Cc1cccc(OC)c1Cl)CC2	1	0.05	0.04	> 24	–
CCCCNc1nc(N)nc2c1CN(Cc1cccs1)CC2	2.5	0.16	0.14	> 24	–
